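Here, GI50 denotes the concentration required for 50% inhibition of growth. Definition used: TGI = concentration required for complete inhibition of growth.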
Experiments:
Assay in all cases: inhibition of tumour cell growth, NCI panel, 384-well format
[1] = tested on: T-47D breast
[2] = tested on: UACC-62 melanoma
[3] = tested on: MCF7 breast
[4] = tested on: MDA-MB-468 breast
[5] = tested on: K-562 leukemia
[6] = tested on: TK-10 renal
[7] = tested on: SW-620 colon
[8] = tested on: CAKI-1 renal
[9] = tested on: HT29 colon
[10] = tested on: EKVX NSCLC
[11] = tested on: SK-MEL-28 melanoma
[12] = tested on: U251 glioblastoma
[13] = tested on: A549 NSCLC
[14] = tested on: COLO 205 colon
[15] = tested on: OVCAR-8 ovarian
[16] = tested on: OVCAR-3 ovarian
[17] = tested on: SNB-19 CNS
[18] = tested on: NCI-H460 NSCLC
[19] = tested on: DU-145 prostate
[20] = tested on: SK-MEL-5 melanoma
[21] = tested on: MDA-MB-435 melanoma
[22] = tested on: NCI-H322M lung
[23] = tested on: HL-60(TB) leukemia
[24] = tested on: BT-549 breast
[25] = tested on: 786-0 renal
[26] = tested on: NCI-H226 lung
[27] = tested on: HS 578T breast
[28] = tested on: HCT-116 colon
[29] = tested on: MALME-3M melanoma
[30] = tested on: MDA-MB-231 breast
[31] = tested on: SNB-75 CNS
[32] = tested on: SF-295 CNS
[33] = tested on: SF-539 CNS
[34] = tested on: PC-3 prostate
[35] = tested on: A498 renal
[36] = tested on: SF-268 CNS
[37] = tested on: HOP-62 NSCLC
[38] = tested on: KM12 colon
[39] = tested on: SN12C renal
[40] = tested on: M14 melanoma
[41] = tested on: SK-MEL-2 melanoma
[42] = tested on: IGROV1 ovarian
[43] = tested on: HCT-15 colon
[44] = tested on: NCI-H522 lung
[45] = tested on: SR leukemia
[46] = tested on: OVCAR-5 ovarian
[47] = tested on: HOP-92 NSCLC
[48] = tested on: UACC-257 melanoma
[49] = tested on: ACHN renal
[50] = tested on: SK-OV-3 ovarian
[51] = tested on: RXF 393 renal
[52] = tested on: NCI-H23 lung
[53] = tested on: UO-31 renal
[54] = tested on: MOLT-4 leukemia
[55] = tested on: OVCAR-4 ovarian

Cc1ncnc2c1ccn2[C@@H]1C[C@H](Oc2cc(C(F)F)c(F)c3c2CNCC3)[C@@H](O)[C@H]1O
GI50 [1]: 1.92 µM
TGI [1]: 37.6 µM
GI50 [2]: 12.5 µM
TGI [2]: 53.3 µM
GI50 [3]: 6.49 µM
TGI [3]: > 100 µM
GI50 [4]: 6.74 µM
TGI [4]: 35.2 µM
GI50 [5]: 11.1 µM
TGI [5]: 23.8 µM
GI50 [6]: 25.5 µM
TGI [6]: > 100 µM
GI50 [7]: 33.3 µM
TGI [7]: > 100 µM
GI50 [8]: 19.1 µM
TGI [8]: > 100 µM
GI50 [9]: 14 µM
TGI [9]: > 100 µM
GI50 [10]: 12.8 µM
TGI [10]: 96 µM
GI50 [11]: 17.2 µM
TGI [11]: 42.3 µM
GI50 [12]: 31.6 µM
TGI [12]: > 100 µM
GI50 [13]: 57.8 µM
TGI [13]: > 100 µM
GI50 [14]: 46.5 µM
TGI [14]: > 100 µM
GI50 [15]: 87.5 µM
TGI [15]: > 100 µM
GI50 [16]: 17.7 µM
TGI [16]: > 100 µM
GI50 [17]: > 100 µM
TGI [17]: > 100 µM
GI50 [18]: 0.221 µM
TGI [18]: > 100 µM
GI50 [19]: 82.9 µM
TGI [19]: > 100 µM
GI50 [20]: 5.57 µM
TGI [20]: 20.6 µM
GI50 [21]: 38.4 µM
TGI [21]: > 100 µM
GI50 [22]: 24.2 µM
TGI [22]: > 100 µM
GI50 [23]: 17 µM
TGI [23]: 30.8 µM
GI50 [24]: 24.7 µM
TGI [24]: > 100 µM
GI50 [25]: 23.6 µM
TGI [25]: > 100 µM
GI50 [26]: 25.7 µM
TGI [26]: > 100 µM
GI50 [27]: 19.3 µM
TGI [27]: > 100 µM
GI50 [28]: 15 µM
TGI [28]: 63.3 µM
GI50 [29]: 15.5 µM
TGI [29]: 31.3 µM
GI50 [30]: 39.2 µM
TGI [30]: > 100 µM
GI50 [31]: 20.8 µM
TGI [31]: 88.6 µM
GI50 [32]: 18.9 µM
TGI [32]: 59.8 µM
GI50 [33]: 36.2 µM
TGI [33]: > 100 µM
GI50 [34]: 19.8 µM
TGI [34]: > 100 µM
GI50 [35]: 19.3 µM
TGI [35]: > 100 µM
GI50 [36]: 29 µM
TGI [36]: > 100 µM
GI50 [37]: 28.2 µM
TGI [37]: > 100 µM
GI50 [38]: 0.0943 µM
TGI [38]: > 100 µM
GI50 [39]: 49.9 µM
TGI [39]: > 100 µM
GI50 [40]: 18.4 µM
TGI [40]: 38.4 µM
GI50 [41]: 22.1 µM
TGI [41]: 50.1 µM
GI50 [42]: 57.1 µM
TGI [42]: > 100 µM
GI50 [43]: 30.5 µM
TGI [43]: > 100 µM
GI50 [44]: 33 µM
TGI [44]: > 100 µM
TGI [45]: 12.2 µM
GI50 [46]: > 100 µM
TGI [46]: > 100 µM
GI50 [47]: 28.1 µM
TGI [47]: > 100 µM
GI50 [48]: 13.5 µM
TGI [48]: 27.6 µM
GI50 [49]: 39.6 µM
TGI [49]: > 100 µM
GI50 [50]: 41.9 µM
TGI [50]: > 100 µM
GI50 [51]: 3.75 µM
TGI [51]: 24.9 µM
GI50 [52]: 12.9 µM
TGI [52]: 52.1 µM
GI50 [53]: 26.4 µM
TGI [53]: > 100 µM

Cn1cc(Nc2nccc(-c3ccc4c(c3)CN(C3COC3)CC[C@H]4NC(=O)c3cn(C(C)(C)C)nn3)n2)cn1
GI50 [1]: 30.9 µM
TGI [1]: > 100 µM
GI50 [2]: 27.3 µM
TGI [2]: > 100 µM
GI50 [3]: 20.8 µM
TGI [3]: > 100 µM
GI50 [54]: 15.3 µM
TGI [54]: 29.4 µM
GI50 [4]: 23.7 µM
TGI [4]: > 100 µM
GI50 [5]: 11.2 µM
TGI [5]: 24.6 µM
GI50 [6]: 70.8 µM
TGI [6]: > 100 µM
GI50 [7]: 48.5 µM
TGI [7]: > 100 µM
GI50 [8]: 44.7 µM
TGI [8]: > 100 µM
GI50 [9]: 32.1 µM
TGI [9]: > 100 µM
GI50 [10]: 28 µM
TGI [10]: > 100 µM
GI50 [11]: 37.1 µM
TGI [11]: > 100 µM
GI50 [12]: > 100 µM
TGI [12]: > 100 µM
GI50 [13]: 60.9 µM
TGI [13]: > 100 µM
GI50 [14]: 37.7 µM
TGI [14]: > 100 µM
GI50 [15]: > 100 µM
TGI [15]: > 100 µM
GI50 [16]: 60.9 µM
TGI [16]: > 100 µM
GI50 [17]: > 100 µM
TGI [17]: > 100 µM
GI50 [18]: 44.2 µM
TGI [18]: > 100 µM
GI50 [19]: > 100 µM
TGI [19]: > 100 µM
GI50 [20]: 27.3 µM
TGI [20]: > 100 µM
GI50 [21]: 43.2 µM
TGI [21]: > 100 µM
GI50 [22]: 68 µM
TGI [22]: > 100 µM
GI50 [23]: 35.1 µM
TGI [23]: > 100 µM
GI50 [24]: 51.6 µM
TGI [24]: > 100 µM
GI50 [25]: > 100 µM
TGI [25]: > 100 µM
GI50 [26]: 33 µM
TGI [26]: > 100 µM
GI50 [27]: 84.7 µM
TGI [27]: > 100 µM
GI50 [28]: 44.5 µM
TGI [28]: > 100 µM
GI50 [29]: 45.5 µM
TGI [29]: > 100 µM
GI50 [30]: 78.1 µM
TGI [30]: > 100 µM
GI50 [31]: 45.8 µM
TGI [31]: > 100 µM
GI50 [32]: > 100 µM
TGI [32]: > 100 µM
GI50 [33]: 49.2 µM
TGI [33]: > 100 µM
GI50 [34]: > 100 µM
TGI [34]: > 100 µM
GI50 [35]: > 100 µM
TGI [35]: > 100 µM
GI50 [36]: > 100 µM
TGI [36]: > 100 µM
GI50 [37]: > 100 µM
TGI [37]: > 100 µM
GI50 [38]: 56 µM
TGI [38]: > 100 µM
GI50 [39]: 46.7 µM
TGI [39]: > 100 µM
GI50 [40]: 36.5 µM
TGI [40]: > 100 µM
GI50 [41]: 66.3 µM
TGI [41]: > 100 µM
GI50 [42]: 18.6 µM
TGI [42]: 54.4 µM
GI50 [43]: > 100 µM
TGI [43]: > 100 µM
GI50 [44]: 22.1 µM
TGI [44]: 74 µM
GI50 [45]: 12.9 µM
TGI [45]: 27.1 µM
GI50 [46]: 61.5 µM
TGI [46]: > 100 µM
GI50 [47]: 52.7 µM
TGI [47]: > 100 µM
GI50 [48]: 43.4 µM
TGI [48]: > 100 µM
GI50 [49]: 41.9 µM
TGI [49]: > 100 µM
GI50 [50]: 29.5 µM
TGI [50]: > 100 µM
GI50 [55]: 54.4 µM
TGI [55]: > 100 µM
GI50 [51]: 11.4 µM
TGI [51]: 54.1 µM
GI50 [52]: 30.2 µM
TGI [52]: > 100 µM
GI50 [53]: 48 µM
TGI [53]: > 100 µM
